Source: patent US20100035823A1, “LIGANDS OF SH3 DOMAINS” (ALBERT EINSTEIN COLLEGE OF MEDICINE OF YESHIVA UNIVERSITY, priority 2005, published 2010)
Like-named read-outs stand apart in the source and are kept apart here. Where a SMILES comes first, the peptide text is derived from it. [ ]: non-standard residue; d: D form. The star is where a group is joined. FITC = O=C1OC2(c3ccc(O)cc3Oc3cc(O)ccc32)c2ccc(NC(=S)*)cc21; Benzoyl(2,3-diOH) = O=C(c1cccc(O)c1O)*; Nicotinoyl(2-OH) = O=C(c1cccnc1O)*; Nspe = C[C@H](NCC(=O)O)c1ccccc1; X1 = O=C([C@H](O)c1ccccc1)*; Dap = NC[C@H](N)C(=O)O; Ahx = NCCCCCC(=O)O

Experiments:
Assay type in all cases: binding
[1] = biological target: T1, Fyn SH3 domain (Fyn SH3-GST fusion protein) (Homo sapiens, UniProt P06241); assay: Determination of Kd values by equilibrium dialysis (fluorescence), Fyn SH3 domain; details: for Kd: Fyn SH3 domain; for Selectivity among Src family SH3 domains (in words): Fyn versus other Src kinase family SH3 domains; for Enhancement in Fyn SH3 affinity relative to parent peptide 9: ratio of KD values versus acetylated derivative 9
T1 construct: The GST-SH3 fusion proteins, Fyn (85-139) and Lck (54-120); purchased Santa Cruz Biotechnology
T1 sequence (P06241 85-139): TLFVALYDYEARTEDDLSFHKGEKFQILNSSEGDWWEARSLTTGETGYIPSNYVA
Procedure: Determination of Kd Values. […] Therefore, the KD values for the SH3 complexes of these species were determined via equilibrium dialysis. All samples were prepared in buffer containing TBS and 1 mM DTT at pH 7.5. Slide-A-Lyzer dialysis slide cassette (0.1-0.5 mL capacity) was employed and contained 30 nM or 500 nM Fyn SH3-GST fusion proteins. The cassettes (400 μL final volume) were placed in a beaker containing a volume of buffer solution (TBS and 1 mM DTT at pH 7.5) that was at least 400-fold greater than that of the sample volume in the dialysis cassette. As a consequence, concentrations of non-SH3-bound peptide were held constant in the dialysis slide cassette over the course of the experiment. Equilibrium dialysis experiments were performed over a period of at least 16 hr and maintained at 4°C. Differences in the fluorescence between the solution in the slide cassette and that in the beaker were measured. The excitation wavelength employed for the peptides were 328 nm. Emission was monitored at 378 nm. The Kd values were calculated from the following equation for fluorescent peptides 8a, 11a, 14 and 7, where [E]t=total enzyme concentration; [E·L]=enzyme-peptide complex; [L]=free peptide concentration.
For non-fluorescent peptide 9, the following equation was used for the determination of Kd′:
Where Kd=the dissociation constant of competition fluorescent peptide, [L′]=total lion-fluorescent peptide concentration, [L]=total competitive fluorescent peptide concentration, [E]t=total SH3 domain concentration; [E·L]=enzyme-peptide (fluorescent competitive peptide) complex concentration.

[2] = biological target: Src SH3 domain (Homo sapiens, UniProt P12931); assay: Determination of Kd values by equilibrium dialysis (fluorescence), Src SH3 domain; details: read-out: Dissociation constant (KD), Src
[3] = biological target: T2, Hck SH3 domain (Homo sapiens, UniProt P08631); assay: Determination of Kd values by equilibrium dialysis (fluorescence), Hck SH3 domain; details: read-out: Dissociation constant (KD), Hck
T2 construct: particularly with respect to the SH3 domains from Lck and Hck
T2 sequence (P08631 78-138 limits assumed): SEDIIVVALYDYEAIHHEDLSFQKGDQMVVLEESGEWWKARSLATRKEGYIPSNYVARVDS

[4] = biological target: Yes SH3 domain (Homo sapiens, UniProt P07947); assay: Determination of Kd values by equilibrium dialysis (fluorescence), Yes SH3 domain; details: read-out: Dissociation constant (KD), Yes
Sequence of Yes SH3 domain (P07947 91-152 limits assumed): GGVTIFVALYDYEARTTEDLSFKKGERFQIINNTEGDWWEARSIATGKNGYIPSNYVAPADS

[5] = biological target: T3, Lck SH3 domain (Homo sapiens, UniProt P06239); assay: Determination of Kd values by equilibrium dialysis (fluorescence), Lck SH3 domain; details: read-out: Dissociation constant (KD), Lck
T3 construct: The GST-SH3 fusion proteins, Fyn (85-139) and Lck (54-120); GST; purchased Santa Cruz Biotechnology
T3 sequence (P06239 54-120): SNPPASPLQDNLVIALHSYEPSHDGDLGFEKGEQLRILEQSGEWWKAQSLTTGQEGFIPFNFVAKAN

[6] = biological target: T4, Fyn SH3-GST fusion protein (Homo sapiens, UniProt P06241); assay: Competition ELISA against microwell-bound biotinylated peptoid 6; details: competition with biotinylated peptoid 6, read-out: IC50 (relative affinity) in ELISA assay
T4 construct: The GST-SH3 fusion proteins, Fyn (85-139) and Lck (54-120); purchased Santa Cruz Biotechnology
T4 sequence (P06241 85-139): as the sequence (P06241 85-139) above
Procedure: We employed Arg-Ala-Leu-Pro-Pro-Leu-Pro as the starting point for Fyn SH3 ligand optimization, a sequence that is consistent with most known SH3 domain-binding elements. We initially introduced diversity elements on the N-terminus of this peptide to furnish Library I (FIG. 2). The 720 individual members of this library were subsequently assessed for SH3 binding potency via an ELISA-based screen. The latter was performed in parallel using streptavidin-coated 96 well plates. A biotinylated-peptide SH3-directed ligand was appended to the individual wells and a GST-SH3 domain fusion protein was subsequently introduced. Competition between members of the library and the microwell-bound biotinylated peptide ligand determined the extent to which the GST-SH3 protein was retained by the individual wells after washing. The latter was quantified using an anti-GST-peroxidase fusion construct. The assay is dependent upon a strong binding interaction between the GST-SH3 domain and the biotinylated peptide ligand associated with the streptavidin-coated well. […]
Screening of the Peptide/Nonpeptide Conjugate Library. […] 100 μL of 1M sulfuric acid solution was introduced to stop the peroxidase reaction and absorbance was measured at 450 nm with a plate reader. […]

[7] = equilibrium dialysis, 4°C, pH 7.5, read-out: Dissociation constant (KD), Fyn

`CC(C)C[C@H](NC(=O)[C@@H]1CCCN1C(=O)[C@@H]1CCCN1C(=O)[C@H](C)NC(=O)[C@H](Cc1ccc(O)cc1)NC(=O)CCCCCNC(=O)CCCCCNC(=S)Nc1ccc2c(c1)C(=O)OC21c2ccc(O)cc2Oc2cc(O)ccc21)C(=O)N(CC(=O)N1CCC[C@H]1C(=O)N[C@@H](CCCNC(=N)N)C(=O)N[C@@H](CC(N)=O)C(=O)N[C@@H](CCCNC(=N)N)C(=O)N1CCC[C@H]1C(=O)N[C@@H](CCCNC(=N)N)C(=O)N[C@@H](C)C(N)=O)[C@@H](C)c1ccccc1` [Ligand 7] ({FITC-Ahx-Ahx}-YAPPL[Nspe]PRNRPRA-NH2) was tested, and the Kd ([1]; values in nM, read-out: KD for the Fyn SH3 domain) was 230 ± 30 nM and the “Selectivity among Src family SH3 domains (in words)” value [1] was “little selectivity versus other members of the Src kinase family”.
For `CC(C)C[C@H](NC(=O)[C@@H]1CCCN1C(=O)[C@@H]1CCCN1C(=O)[C@H](CC(C)C)NC(=O)[C@H](CNC(=O)[C@H](O)c1ccccc1)NC(=O)[C@H](CCCNC(=N)N)NC(=O)c1cccnc1O)C(=O)N1CCC[C@H]1C(=O)N[C@@H](CNC(=O)c1cccc(O)c1O)C(N)=O` [Ligand 14] ({Nicotinoyl(2-OH)}-R[Dap](X1)LPPLP[Dap](Benzoyl(2,3-diOH))-NH2), the Kd [2] was 230 ± 40 nM, the Kd [1, 7] was 25 ± 5 nM and the “Selective affinity for Fyn versus SH3 domains from other Src kinase family members” value ([1]; Fyn versus Lck, Src, Yes, Hck SH3 domains) was 10 fold. For the same compound, the Kd [3] was 260 ± 30 nM, the Kd [4] was 190 ± 20 nM and the Kd [5] was 270 ± 30 nM.
In the case of `CC(C)C[C@H](NC(=O)[C@@H]1CCCN1C(=O)[C@@H]1CCCN1C(=O)[C@H](CC(C)C)NC(=O)[C@H](C)NC(=O)[C@H](CCCNC(=N)N)NC(=O)c1cccnc1O)C(=O)N1CCC[C@H]1C(=O)N[C@@H](CNC(=O)c1cccc(O)c1O)C(N)=O` [Ligand 11a] ({Nicotinoyl(2-OH)}-RALPPLP[Dap](Benzoyl(2,3-diOH))-NH2), the Kd [2] is reported as 370 ± 50 nM, the Kd [1, 7] is reported as 110 ± 30 nM and the “Selectivity among Src family SH3 domains (in words)” value [1] is reported as “slight improvement in selectivity for the Fyn SH3 domain relative to Lck and Hck”. The “Enhancement in Fyn SH3 affinity relative to parent peptide 9” value [1] was greater than 100 fold, the Kd [3] was 620 ± 70 nM and the Kd [4] was 380 ± 140 nM. It also gave a Kd [5] of 590 ± 80 nM.
`CC(C)C[C@H](NC(=O)[C@@H]1CCCN1C(=O)[C@@H]1CCCN1C(=O)[C@H](CC(C)C)NC(=O)[C@H](C)NC(=O)[C@H](CCCNC(=N)N)NC(=O)c1cccnc1O)C(=O)N1CCC[C@H]1C(N)=O` [Ligand 8a] ({Nicotinoyl(2-OH)}-RALPPLP-NH2) was tested, and the Kd [2] was 2500 ± 200 nM, the Kd [1, 7] was 1200 ± 200 nM and the “Selectivity among Src family SH3 domains (in words)” value [1] was “some selectivity in favor of Fyn”. The “Enhancement in Fyn SH3 affinity relative to parent peptide 9” value [1] was roughly 15 fold, the Kd [3] was 5100 ± 700 nM and the IC50 [6] was 15000 nM. It also gave a Kd [4] of 2700 ± 300 nM and a Kd [5] of 5300 ± 400 nM.
